Assay results taken from US5488060A, “Substituted thiadiazoles, compositions containing them and their use as antimicrobial and marine antifouling agents” (The Dow Chemical Company, priority 1994, dated 1996).
In brackets after ≈: the same amount, converted by molar mass. Where two headings read alike, the source gives them in different places.

Tests used:
Type in all cases: cell-based
Bacillus subtilis (Bs) = assay: Minimum inhibitory concentration (MIC) in nutrient agar, Bacillus subtilis
In short: (§1)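 Agar dilution; nutrient agar at pH 6.8 (neutral) and pH 8.2 (alkaline, tricine-buffered). Compound from 1% acetone/water stock, final 500–1.0 ppm. Inoculum 10^8 CFU/mL via Steer's replicator. 30° C, 48 h; growth/no growth read.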

[1] = system: Enterobacter aerogenes (Ea); assay: Minimum inhibitory concentration (MIC) in nutrient agar, Enterobacter aerogenes; details: Klebsiella aerogenes
In short: as §1

Escherichia coli (Ec) = assay: Minimum inhibitory concentration (MIC) in nutrient agar, Escherichia coli
In short: as §1

[2] = system: Klebsiella pneumoniae (Kp); assay: Minimum inhibitory concentration (MIC) in nutrient agar, Klebsiella pneumoniae
In short: as §1

Proteus vulgaris (Pv) = assay: Minimum inhibitory concentration (MIC) in nutrient agar, Proteus vulgaris
In short: as §1

[3] = system: Pseudomonas aeruginosa (PRD-10); assay: Minimum inhibitory concentration (MIC) in nutrient agar, Pseudomonas aeruginosa PRD-10
In short: as §1

[4] = system: Pseudomonas aeruginosa (Pa); assay: Minimum inhibitory concentration (MIC) in nutrient agar, Pseudomonas aeruginosa; details: 30° C., 48 hours, read-out: Minimum Inhibitory Concentration, Pa
In short: as §1

[5] = system: Salmonella choleraesuis (Se); assay: Minimum inhibitory concentration (MIC) in nutrient agar, Salmonella choleraesuis; details: Salmonella enterica
In short: as §1

[6] = system: Staphylococcus aureus (Sa); assay: Minimum inhibitory concentration (MIC) in nutrient agar, Staphylococcus aureus
In short: as §1

Aspergillus niger (An) = assay: Minimum inhibitory concentration (MIC) in malt yeast agar, Aspergillus niger
In short: (§2)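 Fungal inocula from 7-day malt yeast agar cultures (30° C) were suspended in saline with octylphenoxy polyethoxy ethanol, diluted 1:9, and spotted onto malt yeast agar (pH 5.5) containing test compound at 0–500 ppm. Growth assessed after 72 hours at 30° C to give MIC.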

Candida albicans (Ca) = assay: Minimum inhibitory concentration (MIC) in malt yeast agar, Candida albicans; details: pH 5.5; malt yeast agar, 30° C., 48 hours for yeast; read-out: Minimum Inhibitory Concentration, Ca
In short: (§3)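 Plates of pH 5.5 malt yeast agar carried test compound dispersed from a one percent acetone–water solution, final 500 to zero ppm. After diluted slant-culture suspensions were applied, plates were kept at 30 °C and examined at 72 h for fungi, 48 h for yeast.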

[7] = system: Penicillium chrysogenum (Pc); assay: Minimum inhibitory concentration (MIC) in malt yeast agar, Penicillium chrysogenum
In short: as §2

[8] = system: Saccharomyces cerevisiae (Sc); assay: Minimum inhibitory concentration (MIC) in malt yeast agar, Saccharomyces cerevisiae; details: pH 5.5, malt yeast agar, 30° C., 48 hours for yeast, read-out: Minimum Inhibitory Concentration, SC
In short: as §3

Trichoderma viride (Tv) = assay: Minimum inhibitory concentration (MIC) in malt yeast agar, Trichoderma viride
In short: as §2

[9] = system: Aureobasidium pullulan (Ap); assay: Minimum inhibitory concentration (MIC) in malt yeast agar, Aureobasidium pullulan
In short: as §2

Fusarium oxysporum (Fo) = assay: Minimum inhibitory concentration (MIC) in malt yeast agar, Fusarium oxysporum; details: pH 5.5; malt yeast agar, 30° C., 72 hours for fungi; read-out: Minimum Inhibitory Concentration, Fo
In short: as §2

[10] = 48 h, pH 8.2, read-out: Minimum Inhibitory Concentration, Bs
[11] = 48 h, pH 6.8, read-out: Minimum Inhibitory Concentration, Ea
[12] = 48 h, pH 8.2, read-out: Minimum Inhibitory Concentration, Ea
[13] = 48 h, pH 6.8, read-out: Minimum Inhibitory Concentration, Ec
[14] = 48 h, pH 8.2, read-out: Minimum Inhibitory Concentration, Ec
[15] = pH 6.8, nutrient agar, 30° C., 48 hours, read-out: Minimum Inhibitory Concentration, Kp
[16] = 48 h, pH 6.8, read-out: Minimum Inhibitory Concentration, Pv
[17] = 48 h, pH 8.2, read-out: Minimum Inhibitory Concentration, Pv
[18] = 48 h, pH 6.8, read-out: Minimum Inhibitory Concentration, PRD
[19] = 48 h, pH 8.2, read-out: Minimum Inhibitory Concentration, PRD
[20] = 48 h, pH 6.8, read-out: Minimum Inhibitory Concentration, SC
[21] = 48 h, pH 8.2, read-out: Minimum Inhibitory Concentration, SC
[22] = 48 h, pH 8.2, read-out: Minimum Inhibitory Concentration, Sa
[23] = pH 6.8, nutrient agar, 30° C., 48 hours, read-out: Minimum Inhibitory Concentration, Sa
[24] = pH 6.8, nutrient agar, 30° C., 48 hours, read-out: Minimum Inhibitory Concentration, Bs
[25] = pH 8.2, nutrient agar, 30° C., 48 hours, read-out: Minimum Inhibitory Concentration, Kp
[26] = pH 5.5, malt yeast agar, 30° C., 72 hours for fungi, read-out: Minimum Inhibitory Concentration, An
[27] = 72 h, pH 5.5, read-out: Minimum Inhibitory Concentration, PC
[28] = 72 h, pH 5.5, read-out: Minimum Inhibitory Concentration, Tv
[29] = pH 5.5, malt yeast agar, 30° C., read-out: Minimum Inhibitory Concentration, Ap

Structure (SMILES) | MIC (Bacillus subtilis (Bs); [10]) [mg/L] | MIC [1, 11] [mg/L] | MIC [1, 12] [mg/L] | MIC (Escherichia coli (Ec); [13]) [mg/L] | MIC (Escherichia coli (Ec); [14]) [mg/L] | MIC [2, 15] [mg/L] | MIC (Proteus vulgaris (Pv); [16]) [mg/L] | MIC (Proteus vulgaris (Pv); [17]) [mg/L] | MIC [3, 18] [mg/L] | MIC [3, 19] [mg/L] | MIC ([4]; pH 6.8, nutrient agar) [mg/L] | MIC ([4]; pH 8.2, nutrient agar) [mg/L] | MIC [5, 20] [mg/L] | MIC [5, 21] [mg/L] | MIC [6, 22] [mg/L] | MIC [6, 23] [mg/L] | MIC (Candida albicans (Ca)) [mg/L] | MIC [8] [mg/L] | MIC (Fusarium oxysporum (Fo)) [mg/L] | MIC (Bacillus subtilis (Bs); [24]) [mg/L] | further results
CS(=O)(=O)c1ccc(-c2nsnc2SCSC#N)cc1 [Example XXV, 4-(4-Methylsulfonylphenyl)-3-thiocyanatomethylthio-1,2,5-thiadiazole] | 500 (≈ 1460 µM) | 500 (≈ 1460 µM) | > 500 | 500 (≈ 1460 µM) | 500 (≈ 1460 µM) | 500 (≈ 1460 µM) | 500 (≈ 1460 µM) | > 500 | 500 (≈ 1460 µM) | > 500 | 500 (≈ 1460 µM) | > 500 | 500 (≈ 1460 µM) | > 500 | 500 (≈ 1460 µM) | 500 (≈ 1460 µM) | 500 (≈ 1460 µM) | 500 (≈ 1460 µM) | > 500 |  | MIC (Bacillus subtilis (Bs); 48 h, pH 6.8, read-out: Minimum Inhibitory Concentration, Bs): 500 mg/L (≈ 1460 µM); MIC ([2]; 48 h, pH 8.2, read-out: Minimum Inhibitory Concentration, Kp): > 500 mg/L; MIC (Aspergillus niger (An); 72 h, pH 5.5, read-out: Minimum Inhibitory Concentration, An): 250 mg/L (≈ 728 µM); MIC ([7]; pH 5.5, malt yeast agar, 30° C., 72 hours for fungi, read-out: Minimum Inhibitory Concentration, PC): 9 mg/L (≈ 26.2 µM); MIC (Trichoderma viride (Tv); pH 5.5, malt yeast agar, 30° C., 72 hours for fungi, read-out: Minimum Inhibitory Concentration, Tv): > 500 mg/L; MIC ([9]; pH 5.5, read-out: Minimum Inhibitory Concentration, Ap): 250 mg/L (≈ 728 µM)
N#CSc1nsnc1-c1ccc([N+](=O)[O-])cc1 [Example XIII, 4-(4-nitrophenyl)-3-thiocyanato-1,2,5-thiadiazole] |  | 500 (≈ 1890 µM) |  | 500 (≈ 1890 µM) |  | 100 (≈ 378 µM) | 500 (≈ 1890 µM) |  | 500 (≈ 1890 µM) |  | 500 (≈ 1890 µM) | > 100 | 500 (≈ 1890 µM) |  |  |  | < 10 | < 10 | < 10 | 25 (≈ 94.6 µM) | MIC (Bacillus subtilis (Bs); pH 8.2, nutrient agar, 30° C., 48 hours, read-out: Minimum Inhibitory Concentration, Bs): > 100 mg/L; MIC ([1]; pH 8.2, nutrient agar, 30° C., 48 hours, read-out: Minimum Inhibitory Concentration, Ea): > 100 mg/L; MIC (Escherichia coli (Ec); pH 8.2, nutrient agar, 30° C., 48 hours, read-out: Minimum Inhibitory Concentration, Ec): > 100 mg/L; MIC [2, 25]: > 100 mg/L; MIC (Proteus vulgaris (Pv); pH 8.2, nutrient agar, 30° C., 48 hours, read-out: Minimum Inhibitory Concentration, Pv): > 100 mg/L; MIC ([3]; pH 8.2, nutrient agar, 30° C., 48 hours, read-out: Minimum Inhibitory Concentration, PRD): > 100 mg/L; MIC ([5]; pH 8.2, nutrient agar, 30° C., 48 hours, read-out: Minimum Inhibitory Concentration, SC): > 100 mg/L; MIC ([6]; 48 h, pH 6.8, read-out: Minimum Inhibitory Concentration, Sa): 50 mg/L (≈ 189 µM); MIC ([6]; pH 8.2, nutrient agar, 30° C., 48 hours, read-out: Minimum Inhibitory Concentration, Sa): > 100 mg/L; MIC (Aspergillus niger (An); [26]): < 10 mg/L; MIC [7, 27]: < 10 mg/L; MIC (Trichoderma viride (Tv); [28]): < 10 mg/L; MIC [9, 29]: < 10 mg/L
N#CSc1nsnc1-c1ccc(Cl)cc1 [Example II, 4-(4-Chlorophenyl)-3-thiocyanato-1,2,5-thiadiazole] | 500 (≈ 1970 µM) | > 500 | > 500 | 50 (≈ 197 µM) | > 500 |  | > 500 | > 500 | > 500 | > 500 | > 500 | 500 (≈ 1970 µM) | > 500 | 500 (≈ 1970 µM) | 500 (≈ 1970 µM) | 250 (≈ 985 µM) | < 10 | < 10 | < 10 | 250 (≈ 985 µM) | MIC ([2]; 48 h, pH 6.8, read-out: Minimum Inhibitory Concentration, Kp): 50 mg/L (≈ 197 µM); MIC [2, 25]: 250 mg/L (≈ 985 µM); MIC (Aspergillus niger (An); [26]): < 10 mg/L; MIC [7, 27]: < 10 mg/L; MIC (Trichoderma viride (Tv); [28]): < 10 mg/L; MIC [9, 29]: < 10 mg/L
